Target: Human CD38 (Homo sapiens (Human), UniProt P28907)
Test: CD38 enzyme assay
Assay type: biochemical
Details: 2 nM CD38, NAD+ substrate, absorbance at 405 nm
How it was run: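 IC50 values come from fitting % inhibition against compound concentration with a 4-parameter logistic, or a 3-parameter fit with top/bottom fixed at 100/0 or Hill at 1. Inhibition is scaled between DMSO wells and positive-control wells treated with a quinolinone CD38 inhibitor.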

Chain of Human CD38 (P28907 whole entry): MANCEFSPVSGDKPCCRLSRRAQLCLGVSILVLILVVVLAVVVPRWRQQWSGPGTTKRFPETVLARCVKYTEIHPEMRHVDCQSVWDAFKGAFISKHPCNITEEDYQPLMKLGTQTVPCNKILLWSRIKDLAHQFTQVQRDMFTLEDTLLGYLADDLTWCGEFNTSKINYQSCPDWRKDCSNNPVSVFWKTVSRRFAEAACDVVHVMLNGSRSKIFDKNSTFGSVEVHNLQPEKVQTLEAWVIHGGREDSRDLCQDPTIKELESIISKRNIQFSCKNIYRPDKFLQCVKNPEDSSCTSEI

Structure (SMILES)	IC50
O=C(NC1CCCC1)c1nc(-n2ccnc2)nc2cc[nH]c12 [Example 90, N-Cyclopentyl-2-(1H-imidazol-1-yl)-5H-pyrrolo[3,2-d]pyrimidine-4-carboxamide]	< 10 nM
COCCO[C@H]1CC[C@H](NC(=O)c2nc(-n3ccnc3)nc3ccn(C)c23)CC1 [Example 22, 2-(1H-Imidazol-1-yl)-N-((1r,4r)-4-(2-methoxyethoxy)cyclohexyl)-5-methyl-5H-pyrrolo[3,2-d]pyrimidine-4-carboxamide]	10 to 100 nM
O=C(Nc1cc(Cl)ccn1)c1nc(-n2ccnc2)nc2cc[nH]c12 [Example 142]	< 10 nM
COCCN1CCc2ccc(NC(=O)c3nc(-n4ccnc4)nc4cc[nH]c34)cc2C1 [Example 163]	10 to 100 nM
COCCO[C@H]1CC[C@H](NC(=O)c2nc(-c3cncs3)nc3ccsc23)CC1 [Example 50, N-((1r,4r)-4-(2-Methoxyethoxy)cyclohexyl)-2-(thiazol-5-yl)thieno[3,2-d]pyrimidine-4-carboxamide]	10 to 100 nM
CC(C)[C@](C)(O)COC1CCC(NC(=O)c2nc(-n3ccnc3)nc3cc[nH]c23)CC1 (stereo partly drawn) [Example 126b, N-((1R,4r)-4-((S)-2-hydroxy-2,3-dimethylbutoxy)cyclohexyl)-2-(1H-imidazol-1-yl)-5H-pyrrolo[3,2-d]pyrimidine-4-carboxamide]	10 to 100 nM
O=C(NC1CCOCC1)c1nc(-n2ccnc2)nc2cc[nH]c12 [Example 62, 2-(1H-Imidazol-1-yl)-N-(tetrahydro-2H-pyran-4-yl)-5H-pyrrolo[3,2-d]pyrimidine-4-carboxamide]	10 to 100 nM
COCCO[C@H]1CC[C@H](NC(=O)c2nc(-n3ccnc3)cc3nc[nH]c23)CC1 [Example 26, 6-(1H-Imidazol-1-yl)-N-((1r,4r)-4-(2-methoxyethoxy)cyclohexyl)-3H-imidazo[4,5-c]pyridine-4-carboxamide]	10 to 100 nM

More lines, now with the values ahead:

IC50	Structure (SMILES)
< 10 nM	CC(=O)N1Cc2ccc(NC(=O)c3nc(-n4ccnc4)cc4cn[nH]c34)cc2C1 [Example 237, N-(2-acetylisoindolin-5-yl)-5-(1H-imidazol-1-yl)-1H-pyrazolo[3,4-c]pyridine-7-carboxamide]
10 to 100 nM	O=C(N[C@H]1CC[C@H](N2CC(F)(F)C2)CC1)c1nc(-n2ccnc2)nc2cc[nH]c12 [Example 204, N-((1r,4r)-4-(3,3-difluoroazetidin-1-yl)cyclohexyl)-2-(1H-imidazol-1-yl)-5H-pyrrolo[3,2-d]pyrimidine-4-carboxamide]
100 to 1000 nM	CNC(=O)c1nc(-n2ccnc2)nc2cc[nH]c12 [Example 70, 2-(1H-Imidazol-1-yl)-N-methyl-5H-pyrrolo[3,2-d]pyrimidine-4-carboxamide]
< 10 nM	O=C(Nc1ccc(OCC(F)(F)F)nc1)c1nc(-n2ccnc2)cc2cn[nH]c12 [Example 231, 5-(1H-imidazol-1-yl)-N-(6-(2,2,2-trifluoroethoxy)pyridin-3-yl)-1H-pyrazolo[3,4-c]pyridine-7-carboxamide]
100 to 1000 nM	O=C(N[C@H]1CC[C@@H](NCCC(F)(F)F)CC1)c1nc(-n2ccnc2)cc2cn[nH]c12 [Example 188, 5-(1H-imidazol-1-yl)-N-((1s,4s)-4-((3,3,3-trifluoropropyl)amino)cyclohexyl)-1H-pyrazolo[3,4-c]pyridine-7-carboxamide]
< 10 nM	O=C(N[C@H]1CC[C@H](OCCC(F)(F)F)CC1)c1nc(-n2ccnc2)cc2cn[nH]c12 [Example 249, 5-(1H-imidazol-1-yl)-N-((1r,4r)-4-(3,3,3-trifluoropropoxy)cyclohexyl)-1H-pyrazolo[3,4-c]pyridine-7-carboxamide]
10 to 100 nM	CN(C)CCOc1ccc(NC(=O)c2nc(-n3ccnc3)nc3cc[nH]c23)nc1 [Example 129]
< 10 nM	O=C(NC1CCC(F)(F)CC1)c1nc(-n2ccnc2)cc2cn[nH]c12 [Example 107, N-(4,4-difluorocyclohexyl)-5-(1H-imidazol-1-yl)-1H-pyrazolo[3,4-c]pyridine-7-carboxamide]
10 to 100 nM	CC(C)[C@H](O)CO[C@H]1CC[C@H](NC(=O)c2nc(-n3ccnc3)nc3cc[nH]c23)CC1 (single isomer, unassigned) [Example 119b]

Reference: patent US11535621B2, “Heterobicyclic amides as inhibitors of CD38” (Ribon Therapeutics, Inc., priority 2019, dated 2022)
